Test results as given in PubChem BioAssay AID212 (DTP/NCI, 2004).
Several values for one entry are separate records, joined by “and”; a condition that tells them apart may be missing. Identical values can stand only once. Records with an inconclusive call do not appear.

System: BDF1 mice, colon carcinoma 38 sc, T/C %
Test: NCI In Vivo Anticancer Drug Screen. Data for tumor model Colon Carcinoma 38 (subcutaneous) in B6D2F1 (BDF1) mice
Conditions: endpoint: median tumor weight (est.), higher = larger tumour
Summary of the method: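 Compound antitumor activity was assessed in mice carrying transplantable tumors. Survival or tumor size was recorded, and each value is the treated-group measurement divided by that of the vehicle-treated control group.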

[1] = dose: 50.0 mg/kg/injection, schedule: Q07DX002 (ip), vehicle: saline
[2] = dose: 50.0 mg/kg/injection, schedule: Q07DX002 (ip), vehicle: suspension in saline
[3] = dose: 100.0 mg/kg/injection, schedule: Q07DX002 (ip), vehicle: suspension in saline
[4] = dose: 200.0 mg/kg/injection, schedule: Q07DX002 (ip), vehicle: saline
[5] = dose: 12.5 mg/kg/injection, schedule: Q07DX002 (ip), vehicle: saline with Tween-80
[6] = dose: 25.0 mg/kg/injection, schedule: Q07DX002 (ip), vehicle: saline with Tween-80
[7] = dose: 50.0 mg/kg/injection, schedule: Q07DX002 (ip), vehicle: saline with Tween-80
[8] = dose: 100.0 mg/kg/injection, schedule: Q07DX002 (ip), vehicle: saline with Tween-80
[9] = dose: 200.0 mg/kg/injection, schedule: Q07DX002 (ip), vehicle: saline with Tween-80
[10] = dose: 400.0 mg/kg/injection, schedule: Q07DX002 (ip), vehicle: saline with Tween-80
[11] = dose: 25.0 mg/kg/injection, schedule: Q07DX002 (ip), vehicle: saline
[12] = dose: 100.0 mg/kg/injection, schedule: Q07DX002 (ip), vehicle: saline

With `CC(C)NC(=O)OCc1c(COC(=O)NC(C)C)c(-c2ccc(Cl)c(Cl)c2)n2c1CCC2` the T/C (dose: 12.5 mg/kg/injection, schedule: Q07DX002 (ip), vehicle: distilled water + Tween-80) was 82 % of control and 99 % of control, the T/C (dose: 25.0 mg/kg/injection, schedule: Q07DX002 (ip), vehicle: distilled water + Tween-80) was 114 % of control and 94 % of control and 107 % of control and the T/C (dose: 50.0 mg/kg/injection, schedule: Q07DX002 (ip), vehicle: distilled water + Tween-80) was 53 % of control and 67 % of control.
`CN=C(N)N/N=C(\C)c1ccc2c(c1)Cc1cc(/C(C)=N/NC(N)=NC)ccc1-2` was tested, and the T/C (dose: 0.75 mg/kg/injection, schedule: Q07DX002 (ip), vehicle: saline with Tween-80) was 104 % of control and the T/C (dose: 3.0 mg/kg/injection, schedule: Q07DX002 (ip), vehicle: saline with Tween-80) was 115 % of control.
For `CC(C)[C@](O)(C(=O)OCC1=CCN2CC[C@@H](O)[C@@H]12)[C@H](C)O`, the T/C (dose: 12.5 mg/kg/injection, schedule: Q07DX002 (ip), vehicle: suspension in saline) was 123 % of control, the T/C (dose: 25.0 mg/kg/injection, schedule: Q07DX002 (ip), vehicle: suspension in saline) was 76 % of control and the T/C [1] was 85 % of control. The T/C [2] was 74 % of control, the T/C (dose: 50.0 mg/kg/injection, schedule: Q07DX002 (ip), vehicle: water) was 73 % of control and the T/C [3] was 56 % of control. The T/C (dose: 100.0 mg/kg/injection, schedule: Q07DX002 (ip), vehicle: water) was 184 % of control, the T/C [4] was 105 % of control and the T/C (dose: 200.0 mg/kg/injection, schedule: Q07DX002 (ip), vehicle: suspension in saline) was 98 % of control. For the same molecule, the T/C (dose: 400.0 mg/kg/injection, schedule: Q07DX002 (ip), vehicle: saline) was 81 % of control, the T/C (dose: 400.0 mg/kg/injection, schedule: Q07DX002 (ip), vehicle: suspension in saline) was 95 % of control and the T/C (dose: 400.0 mg/kg/injection, schedule: Q07DX002 (ip), vehicle: water) was 52 % of control.
In the case of `C[n+]1c(/C=N/NC(N)=S)ccc2ccccc21`, the T/C [5] is reported as 115 % of control, the T/C [6] is reported as 83 % of control and the T/C [7] is reported as 77 % of control. The T/C [8] was 87 % of control, the T/C [9] was 108 % of control and the T/C [10] was 118 % of control.
`Cc1cc(NCCCCCCNc2cc(C)nc3cc(N(C)C)ccc23)c2ccc(N(C)C)cc2n1` was tested, and the T/C (dose: 6.0 mg/kg/injection, schedule: Q07DX002 (ip), vehicle: distilled water + Tween-80 + alcohol) was 107 % of control, the T/C (dose: 12.5 mg/kg/injection, schedule: Q07DX002 (ip), vehicle: distilled water + Tween-80 + alcohol) was 99 % of control and the T/C (dose: 25.0 mg/kg/injection, schedule: Q07DX002 (ip), vehicle: distilled water + Tween-80 + alcohol) was 95 % of control. For the same molecule, the T/C (dose: 50.0 mg/kg/injection, schedule: Q07DX002 (ip), vehicle: distilled water + Tween-80 + alcohol) was 105 % of control and the T/C (dose: 100.0 mg/kg/injection, schedule: Q07DX002 (ip), vehicle: distilled water + Tween-80 + alcohol) was 90 % of control.
With `Cc1c(-c2ccc(C3CCCCC3)cc2)nc2ccc(F)cc2c1C(=O)O` the T/C (dose: 50.0 mg/kg/injection, schedule: Q07DX002 (ip), vehicle: Klucel (hydroxypropylcellulose) (HPC)) was 89 % of control, the T/C (dose: 100.0 mg/kg/injection, schedule: Q07DX002 (ip), vehicle: Klucel (hydroxypropylcellulose) (HPC)) was 80 % of control and the T/C (dose: 200.0 mg/kg/injection, schedule: Q07DX002 (ip), vehicle: Klucel (hydroxypropylcellulose) (HPC)) was 116 % of control. For the same molecule, the T/C (dose: 400.0 mg/kg/injection, schedule: Q07DX002 (ip), vehicle: Klucel (hydroxypropylcellulose) (HPC)) was 86 % of control, the T/C (dose: 400.0 mg/kg/injection, schedule: Q07DX002 (ip), vehicle: Klucel + Tween-80) was 120 % of control and the T/C (dose: 800.0 mg/kg/injection, schedule: Q07DX002 (ip), vehicle: Klucel (hydroxypropylcellulose) (HPC)) was 107 % of control. The T/C (dose: 800.0 mg/kg/injection, schedule: Q07DX002 (ip), vehicle: Klucel + Tween-80) was 80 % of control.
For `CCN(CC)CCNc1ccc(C)c2sc3ccccc3c(=O)c12`, the T/C [11] was 47 % of control, the T/C [1] was 78 % of control and the T/C [2] was 45 % of control. For the same molecule, the T/C [12] was 105 % of control, the T/C [3] was 24 % of control and the T/C [4] was 16 % of control.
`CCOC(=O)CNC(=O)CCCCSc1ncnc2nc[nH]c12` was tested, and the T/C (dose: 200.0 mg/kg/injection, schedule: Q07DX003 (ip), vehicle: saline with Tween-80) was 74 % of control, the T/C (dose: 400.0 mg/kg/injection, schedule: Q07DX003 (ip), vehicle: saline with Tween-80) was 104 % of control and the T/C (dose: 800.0 mg/kg/injection, schedule: Q07DX003 (ip), vehicle: saline with Tween-80) was 79 % of control. For the same molecule, the T/C (dose: 1600.0 mg/kg/injection, schedule: Q07DX003 (ip), vehicle: saline with Tween-80) was 82 % of control.
For `Nc1c(C(=O)O)[nH]c(=O)[nH]c1=O`, the T/C [5] was 104 % of control, the T/C [6] was 100 % of control and the T/C [7] was 80 % of control. The T/C [9] was 123 % of control.
`OCC1OC(n2cnc3c2NC=NC[C@H]3O)CC1O` (some centres not stated) was tested, and the T/C (dose: 0.63 mg/kg/injection, schedule: Q07DX002 (ip), vehicle: saline) was 70 % of control, the T/C (dose: 1.25 mg/kg/injection, schedule: Q07DX002 (ip), vehicle: saline) was 83 % of control and the T/C (dose: 2.0 mg/kg/injection, schedule: Q07DX002 (ip), vehicle: saline) was 68 % of control. For the same molecule, the T/C (dose: 2.5 mg/kg/injection, schedule: Q07DX002 (ip), vehicle: saline) was 43 % of control, the T/C (dose: 5.0 mg/kg/injection, schedule: Q07DX002 (ip), vehicle: saline) was 90 % of control and the T/C (dose: 8.0 mg/kg/injection, schedule: Q07DX002 (ip), vehicle: saline) was 67 % of control. The T/C (dose: 10.0 mg/kg/injection, schedule: Q07DX002 (ip), vehicle: saline) was 45 % of control and the T/C (dose: 16.0 mg/kg/injection, schedule: Q07DX002 (ip), vehicle: saline) was 74 % of control.
`Nc1ccc2ccc(NS(=O)(=O)N3CCCCC3)cc2c1` was tested, and the T/C [8] was 120 % of control, the T/C [9] was 99 % of control and the T/C [10] was 124 % of control.
For `S=C=NCCc1ccccc1`, the T/C [8] was 82 % of control and 105 % of control.
In the case of `COCC(O)Cn1ccnc1[N+](=O)[O-]` (configuration not stated), the T/C (dose: 12.5 mg/kg/injection, schedule: Q07DX003 (ip), vehicle: water) is reported as 85 % of control, the T/C (dose: 25.0 mg/kg/injection, schedule: Q07DX003 (ip), vehicle: water) is reported as 90 % of control and the T/C (dose: 50.0 mg/kg/injection, schedule: Q07DX003 (ip), vehicle: water) is reported as 100 % of control. For the same molecule, the T/C (dose: 100.0 mg/kg/injection, schedule: Q07DX003 (ip), vehicle: water) was 118 % of control, the T/C (dose: 200.0 mg/kg/injection, schedule: Q07DX003 (ip), vehicle: water) was 72 % of control and the T/C (dose: 400.0 mg/kg/injection, schedule: Q07DX003 (ip), vehicle: water) was 86 % of control.
In the case of `O=Cc1ccc(O)c(O)c1`, the T/C [11] is reported as 65 % of control, the T/C [7] is reported as 117 % of control and the T/C [1] is reported as 85 % of control. For the same molecule, the T/C [8] was 91 % of control, the T/C [12] was 63 % of control and the T/C [9] was 108 % of control. The T/C [4] was 97 % of control, the T/C [10] was 113 % of control and the T/C (dose: 800.0 mg/kg/injection, schedule: Q07DX002 (ip), vehicle: saline) was 88 % of control.
For `O=C(Nc1nncs1)c1cccs1`, the T/C [8] was 87 % of control and 88 % of control.
In the case of `CS(=O)(=O)CS(=O)(=O)OCCCl`, the T/C (dose: 1.5 mg/kg/injection, schedule: Q07DX002 (ip), vehicle: saline) is reported as 86 % of control, the T/C (dose: 3.0 mg/kg/injection, schedule: Q07DX002 (ip), vehicle: saline) is reported as 91 % of control and the T/C (dose: 6.0 mg/kg/injection, schedule: Q07DX002 (ip), vehicle: saline) is reported as 97 % of control. The T/C (dose: 12.0 mg/kg/injection, schedule: Q07DX002 (ip), vehicle: saline) was 155 % of control and the T/C [6] was 73 % of control.
